In patent US11673910B2, “Macrolides with modified desosamine sugars and uses thereof” (Zikani Therapeutics, Inc., priority 2017, dated 2023) one finds MIC data, which are given here for 19 compounds.

For orientation: MIC means the lowest concentration that inhibits growth of the organism. A low value points to a more susceptible organism.

Common to all, as to format: cell-based
The test system of one assay is E. coli strain MP-4. Nature of the assay: Broth dilution MIC determination (CLSI) against E. coli strain MP-4. The following applies: Escherichia coli, MP4. Summed up: (§1)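 MICs were determined by CLSI standard broth dilution. Values are binned: "+++" ≤4 mg/L, "++" ≥8 and <32 mg/L, "+" ≥32 mg/L.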
(Broth dilution looks for growth in wells or tubes with falling amounts of substance.)

Assay [1] has as its system K. pneumoniae strain MP-548. Nature of the assay: Broth dilution MIC determination (CLSI) against K. pneumoniae strain MP-548. As to conditions: Klebsiella pneumoniae, MP548. Summed up: as §1
In assay [2] the test system is P. aeruginosa strain MP-3. Nature of the assay: Broth dilution MIC determination (CLSI) against P. aeruginosa strain MP-3. The following applies: Pseudomonas aeruginosa, MP3. Summed up:
as §1

Assay [3] concerns A. baumannii strain MP-15. Nature of the assay: Broth dilution MIC determination (CLSI) against A. baumannii strain MP-15. As to conditions: Acinetobacter baumannii, MP15. A digest of the protocol: as §1
The subject of another assay is S. aureus strain MP-12. Nature of the assay: Broth dilution MIC determination (CLSI) against S. aureus strain MP-12. As to conditions: Staphylococcus aureus, MP12, strain MP-12. Summed up: as §1

The structures appear in SMILES notation. ≈ marks a conversion by molar mass, not a printed value.

On to `CC[C@H]1OC(=O)C(C)C(=O)[C@H](C)[C@@H](OC2OC(CNCCO)CC(N(C)C)C2O)[C@](C)(OC)C[C@@H](C)CN[C@H](C)[C@H]2NC(=O)O[C@@]21C` (some centres unmarked) [Compound 115, 3-Descladinosyl-3-oxo-6-O-methyl-N9a-desmethyl-11,12-dideoxy-12,11-(oxycarbonylimino)-6′-(2-hydroxyethylamino) Azithromycin], for which the MIC (with E. coli strain MP-4; in assay [1]; in assay [2]; in assay [3]; in the assay on S. aureus strain MP-12) was not below 32 µg/mL throughout.

With `CC[C@H]1OC(=O)C(C)C(=O)[C@H](C)[C@@H](O[C@@H]2OC(CNc3ccc(Cl)cc3)CC(N(C)C)C2O)[C@](C)(OC)C[C@@H](C)CN[C@H](C)[C@H]2NC(=O)O[C@@]21C` (some centres unmarked) [Compound 49], the minimum inhibitory concentration (MIC) in the assay on E. coli strain MP-4 is 8 to 32 µg/mL (≈ 10.8 to 43.3 µM); in assay [1], not below 32 µg/mL; in assay [2] it was not below 32 µg/mL; in assay [3], not below 32 µg/mL; with S. aureus strain MP-12, 8 to 32 µg/mL (≈ 10.8 to 43.3 µM).

For `CC[C@H]1OC(=O)C(C)C(=O)[C@H](C)[C@@H](OC2OC(CN3CCCCCC3)CC(N(C)C)C2O)[C@](C)(OC)C[C@@H](C)CN[C@H](C)[C@H]2NC(=O)O[C@@]21C` (some centres unmarked) [Compound 124, 3-Desdadinosyl-3-oxo-6-O-methyl-N9a-desmethyl-11,12-dideoxy-12,11-(oxycarbonylimino)-6′-(1-azepanyl) Azithromycin], the minimum inhibitory concentration (MIC) in the assay with E. coli strain MP-4 was not above 4 µg/mL; in assay [1], 8 to 32 µg/mL (≈ 11.3 to 45 µM); in assay [2] it was not below 32 µg/mL; in assay [3] it was not below 32 µg/mL; against S. aureus strain MP-12, not below 32 µg/mL.

`CO[C@]1(C)C[C@@H](C)CN[C@H](C)[C@H]2NC(=O)O[C@]2(C)[C@@H](C)OC(=O)C(C)C(=O)[C@H](C)[C@H]1OC1OC(CNC2CC2)CC(N(C)C)C1O` (some centres unmarked) [Compound 146, 3-Descladinosyl-3-oxo-6-O-methyl-N9a-desmethyl-11,12-dideoxy-12,11-(oxycarbonylimino)-6′-cyclopropylamino-13-methyl Azithromycin]: the minimum inhibitory concentration (MIC) (in the assay on E. coli strain MP-4; in assay [1]; in assay [2]; in assay [3]; against S. aureus strain MP-12) was not below 32 µg/mL throughout.

Take `CC[C@H]1OC(=O)C(C)C(=O)[C@H](C)[C@@H](OC2OC(CN(C)C3CC3)CC(N(C)C)C2O)[C@](C)(OC)C[C@@H](C)CN[C@H](C)[C@H]2NC(=O)O[C@@]21C` (some centres unmarked) [Compound 129, 3-Descladinosyl-3-oxo-6-O-methyl-N9a-desmethyl-11,12-dideoxy-12,11-(oxycarbonylimino)-6′-(N-methylcyclopropylamino) Azithromycin]: the minimum inhibitory concentration (MIC) in the assay with E. coli strain MP-4 is not above 4 µg/mL; in assay [1], 8 to 32 µg/mL (≈ 11.7 to 46.9 µM); in assay [2], not below 32 µg/mL; in assay [3] it was 8 to 32 µg/mL (≈ 11.7 to 46.9 µM); against S. aureus strain MP-12, 8 to 32 µg/mL (≈ 11.7 to 46.9 µM).

For the compound `CC[C@H]1OC(=O)C(C)C(=O)[C@H](C)[C@@H](O[C@@H]2OC(CNCC3COC3)CC(N(C)C)C2O)[C@](C)(OC)C[C@@H](C)CN[C@H](C)[C@H]2NC(=O)O[C@@]21C` (some centres unmarked) [Compound 56], the minimum inhibitory concentration (MIC) was 8 to 32 µg/mL (≈ 11.4 to 45.8 µM) against E. coli strain MP-4; not below 32 µg/mL in assay [1]; not below 32 µg/mL in assay [2]; not below 32 µg/mL in assay [3]; not below 32 µg/mL in the assay on S. aureus strain MP-12.

As to `CC[C@H]1OC(=O)C(C)C(=O)[C@H](C)[C@@H](O[C@@H]2OC(CNCc3cccc(OC)c3)CC(N(C)C)C2O)[C@](C)(OC)C[C@@H](C)CN[C@H](C)[C@H]2NC(=O)O[C@@]21C` (some centres unmarked) [Compound 43], the minimal inhibitory concentration (MIC) against E. coli strain MP-4 is not above 4 µg/mL; in assay [1], not below 32 µg/mL; in assay [2], not below 32 µg/mL; in assay [3], not below 32 µg/mL; with S. aureus strain MP-12, not below 32 µg/mL.

In the case of `CC[C@H]1OC(=O)C(C)C(=O)[C@H](C)[C@@H](OC2OC(CN3CCOCC3)CC(N(C)C)C2O)[C@](C)(OC)C[C@@H](C)CN[C@H](C)[C@H]2NC(=O)O[C@@]21C` (some centres unmarked) [Compound 132, 3-Descladinosyl-3-oxo-6-O-methyl-N9a-desmethyl-11,12-dideoxy-12,11-(oxycarbonylimino)-6′-(1-morpholino) Azithromycin], the minimal inhibitory concentration (MIC) was not above 4 µg/mL in the assay with E. coli strain MP-4; 8 to 32 µg/mL (≈ 11.4 to 45.8 µM) in assay [1]; not below 32 µg/mL in assay [2]; not below 32 µg/mL in assay [3]; 8 to 32 µg/mL (≈ 11.4 to 45.8 µM) against S. aureus strain MP-12.

In the case of `CC[C@H]1OC(=O)[C@@]2(C)CCOC(C)(C[C@@H](C)CN(C)[C@H](C)[C@H]3NC(=O)O[C@@]31C)[C@H](O[C@@H]1OC(C)CC(N(C)C)C1O)[C@@H](C)C2=O` (some centres unmarked) [Compound 223], the MIC with E. coli strain MP-4 is not above 4 µg/mL; in assay [1], not above 4 µg/mL; in assay [2], not below 32 µg/mL; in assay [3] it was 8 to 32 µg/mL (≈ 12.5 to 50 µM); against S. aureus strain MP-12 it was not above 4 µg/mL.

Take `CC[C@H]1OC(=O)C(C)C(=O)[C@H](C)[C@@H](O[C@@H]2OC(CNCc3ccc(F)cc3F)CC(N(C)C)C2O)[C@](C)(OC)C[C@@H](C)CN[C@H](C)[C@H]2NC(=O)O[C@@]21C` (some centres unmarked) [Compound 31]: the MIC against E. coli strain MP-4 is not above 4 µg/mL; in assay [1] it was not below 32 µg/mL; in assay [2] it was not below 32 µg/mL; in assay [3], not below 32 µg/mL; against S. aureus strain MP-12, not below 32 µg/mL.

Consider `CC[C@H]1OC(=O)C(C)C(=O)[C@H](C)[C@@H](OC2OC(CN3CCC(C)(C)CC3)CC(N(C)C)C2O)[C@](C)(OC)C[C@@H](C)CN[C@H](C)[C@H]2NC(=O)O[C@@]21C` (some centres unmarked) [Compound 138, 3-Desdadinosyl-3-oxo-6-O-methyl-N9a-desmethyl-11,12-dideoxy-12,11-(oxycarbonylimino)-6′-(4″,4″-dimethylpiperidin-1-yl) Azithromycin], for which the MIC was not above 4 µg/mL against E. coli strain MP-4; not below 32 µg/mL in assay [1]; not below 32 µg/mL in assay [2]; not below 32 µg/mL in assay [3]; not below 32 µg/mL against S. aureus strain MP-12.

`CC[C@H]1OC(=O)C(C)C(=O)[C@H](C)[C@@H](O[C@@H]2OC(CNc3cccc(F)c3)CC(N(C)C)C2O)[C@](C)(OC)C[C@@H](C)CN[C@H](C)[C@H]2NC(=O)O[C@@]21C` (some centres unmarked) [Compound 48]: the minimum inhibitory concentration (MIC) against E. coli strain MP-4 is 8 to 32 µg/mL (≈ 11.1 to 44.3 µM); in assay [1], not below 32 µg/mL; in assay [2], not below 32 µg/mL; in assay [3] it was not below 32 µg/mL; in the assay on S. aureus strain MP-12 it was 8 to 32 µg/mL (≈ 11.1 to 44.3 µM).

For the compound `CC[C@H]1OC(=O)C(C)C(=O)[C@H](C)[C@@H](O[C@@H]2OC(CNCCc3ccc(F)cc3)CC(N(C)C)C2O)[C@](C)(OC)C[C@@H](C)CN[C@H](C)[C@H]2NC(=O)O[C@@]21C` (some centres unmarked) [Compound 39], the MIC in the assay with E. coli strain MP-4 was not above 4 µg/mL; in assay [1] it was not below 32 µg/mL; in assay [2], not below 32 µg/mL; in assay [3] it was not below 32 µg/mL; against S. aureus strain MP-12, not below 32 µg/mL.

For the compound `CC[C@H]1OC(=O)C(C)C(=O)[C@H](C)[C@@H](O[C@@H]2O[C@H](CNC3CC3)CC(N(C)C)[C@H]2O)[C@](C)(OC)C[C@@H](C)CN(C)[C@H](C)[C@H]2N(C)C(=O)O[C@]12C` (some centres unmarked) [Compound 191], the MIC against E. coli strain MP-4 was not above 4 µg/mL; in assay [1] it was 8 to 32 µg/mL (≈ 11.5 to 45.9 µM); in assay [2], not below 32 µg/mL; in assay [3], not below 32 µg/mL; against S. aureus strain MP-12 it was not below 32 µg/mL.

In the case of `CC[C@H]1OC(=O)C(C)C(=O)[C@H](C)[C@@H](O[C@@H]2O[C@H](CCC3CC3)CC(N(C)C)[C@H]2O)[C@](C)(OC)C[C@@H](C)CN[C@H](C)[C@H]2NC(=O)O[C@@]21C` (some centres unmarked) [Compound 185, 3-Descladinosyl-3-oxo-6-O-methyl-N9a-desmethyl-11,12-dideoxy-12,11-(oxycarbonylimino)-6′-cyclopropylmethyl Azithromycin], the minimum inhibitory concentration (MIC) in the assay on E. coli strain MP-4 was 8 to 32 µg/mL (≈ 12 to 47.9 µM); in assay [1], not below 32 µg/mL; in assay [2], not below 32 µg/mL; in assay [3], 8 to 32 µg/mL (≈ 12 to 47.9 µM); against S. aureus strain MP-12, 8 to 32 µg/mL (≈ 12 to 47.9 µM).

Consider `CC[C@H]1OC(=O)C(C)C(=O)[C@H](C)[C@@H](OC2OC(CNC3CC3)CC(N(C)C)C2O)[C@](C)(OC)C[C@@H](C)CN[C@H](C)[C@H]2NC(=O)O[C@@]21C` (some centres unmarked) [Compound 118, 3-Descladinosyl-3-oxo-6-O-methyl-N9a-desmethyl-11,12-dideoxy-12,11-(oxycarbonylimino)-6′-cyclopropylamino Azithromycin], for which the minimal inhibitory concentration (MIC) was not above 4 µg/mL with E. coli strain MP-4; not above 4 µg/mL in assay [1]; not below 32 µg/mL in assay [2]; not below 32 µg/mL in assay [3]; 8 to 32 µg/mL (≈ 12 to 47.8 µM) against S. aureus strain MP-12.

With `CC[C@H]1OC(=O)C(C)C(=O)[C@H](C)[C@@H](OC2OC(CN3CCCC3)CC(N(C)C)C2O)[C@](C)(OC)C[C@@H](C)CN[C@H](C)[C@H]2NC(=O)O[C@@]21C` (some centres unmarked) [Compound 122, 3-Descladinosyl-3-oxo-6-O-methyl-N9a-desmethyl-11,12-dideoxy-12,11-(oxycarbonylimino)-6′-(1-pyrrolodinyl) Azithromycin], the MIC in the assay on E. coli strain MP-4 was not above 4 µg/mL; in assay [1], 8 to 32 µg/mL (≈ 11.7 to 46.9 µM); in assay [2], not below 32 µg/mL; in assay [3], not below 32 µg/mL; in the assay with S. aureus strain MP-12, not below 32 µg/mL.

`CC[C@H]1OC(=O)C(C)C(=O)[C@H](C)[C@@H](O[C@@H]2OC(CO)CC(N(C)C)C2O)[C@](C)(OC)C[C@@H](C)CN[C@H](C)[C@H]2NC(=O)O[C@@]21C` (some centres unmarked) [Compound 57]: the MIC in the assay with E. coli strain MP-4 is 8 to 32 µg/mL (≈ 12.7 to 50.8 µM); in assay [1], not below 32 µg/mL; in assay [2], not below 32 µg/mL; in assay [3] it was not below 32 µg/mL; with S. aureus strain MP-12, not below 32 µg/mL.

On to `CC[C@H]1OC(=O)C(C)C(=O)[C@H](C)[C@@H](OC2OC(CN(C)CC3CC3)CC(N(C)C)C2O)[C@](C)(OC)C[C@@H](C)CN[C@H](C)[C@H]2NC(=O)O[C@@]21C` (some centres unmarked) [Compound 153, 3-Descladinosyl-3-oxo-6-O-methyl-N9a-desmethyl-11,12-dideoxy-12,11-(oxycarbonylimino)-6′-methylcyclopropylmethylamino Azithromycin], for which the minimal inhibitory concentration (MIC) with E. coli strain MP-4 is not above 4 µg/mL; in assay [1], not below 32 µg/mL; in assay [2], not below 32 µg/mL; in assay [3], not below 32 µg/mL; against S. aureus strain MP-12 it was not below 32 µg/mL.
